Experimental findings from patent US6911416B2, “Substituted N-benzoyl-n′(tetrazolylphenyl)-ureas and their use as pest control agents” (priority 2000, dated 2005) are described below.

Data set [1] is described as follows: logP (pH2) determination by HPLC, EEC directive 79/831 Annex V. A8. To be noted: for chromatographic logP / logP (pH2): pH2; for chromatographic logP: HPLC gradient acetonitrile/0.1% aqueous phosphoric acid, values in preparation examples, read-out: log P(pH2). Type of data set: physicochemical.
Another data set has as its system Heliothis virescens. Briefly: Heliothis virescens test (dipped soya shoots). Type of data set: in vivo. To be noted: active compound concentration 0.1%, after 6 days, soya shoots (Glycine max). As for the experimental part: (§1) To produce a suitable active compound preparation, 1 part by weight of active compound is mixed with the stated amounts of solvent and emulsifier, and the concentrate is diluted with emulsifier-containing water to the desired concentration.
Soya shoots (Glycine max) are treated by dipping into the active compound preparation of the desired concentration and are populated with Heliothis virescens while the leaves are still moist.
(§2) After the desired period, the destruction is determined in %. 100% means that all the caterpillars have been killed; 0% means that none of the caterpillars have been killed.

Data set [2] concerns mustard beetle (Phaedon cochleariae) larvae. Briefly: Phaedon larvae test (dipped cabbage leaves). To be noted: active compound concentration 0.1%, after 7 days, cabbage leaves (Brassica oleracea). The class given is in vivo. As for the experimental part:
as §1
Cabbage leaves (Brassica oleracea) are treated by dipping into the active compound preparation of the desired concentration and are populated with mustard beetle (Phaedon cochleariae) larvae while the leaves are still moist.
After the desired period, the destruction is determined in %. 100% means that all the beetle have been killed; 0% means that none of the beetle larvae have been killed.

Data set [3] has as its system diamond-back moth (Plutella xylostella) caterpillars. Description: Plutella test (dipped cabbage leaves). Type of data set: in vivo. To be noted: active compound concentration 0.1%, after 6 days, cabbage leaves (Brassica oleracea). As for the experimental part: as §1
Cabbage leaves (Brassica oleracea) are treated by dipping into the active compound preparation of the desired concentration and are populated with diamond-back moth (Plutella xylostella) caterpillars while the leaves are still moist.
as §2

Data set [4] concerns fall armyworm (Spodoptera exigua) caterpillars. Description: Spodoptera exigua test (dipped cabbage leaves). The class given is in vivo. The conditions noted are these: active compound concentration 0.1%, after 6 days, cabbage leaves (Brassica oleracea). The protocol:
as §1
Cabbage leaves (Brassica oleracea) are treated by dipping into the active compound preparation of the desired concentration and are populated with fall armyworm (Spodoptera exigua) caterpillars while the leaves are still moist.
as §2

In data set [5] the test system is fall armyworm (Spodoptera frugiperda) caterpillars. Description: Spodoptera frugiperda test (dipped cabbage leaves). The class given is in vivo. To be noted: active compound concentration 0.1%, after 7 days, cabbage leaves (Brassica oleracea). The protocol:
Spodoptera frugiperda Test
as §1
Cabbage leaves (Brassica oleracea) are treated by dipping into the active compound preparation of the desired concentration and are populated with fall armyworm (Spodoptera frugiperda) caterpillars while the leaves are still moist.
as §2

Setting [6] is: Table 1, compounds of formula (I), only decimal values are logP.
[7] abbreviates: Table 2, tetrazolylanilines of formula (III).

`Cn1nnnc1-c1ccc(N)c(Cl)c1` [1-methyl-(3-chloro-4-aminophenyl)-tetrazole]: the chromatographic logP in data set [1] (pH 2) is 1.17. Same read-out and setting: the result for `Nc1ccc(-c2nn[nH]n2)cc1Cl` [5-(3-chloro-4-aminophenyl)-tetrazole] reads 1. Take `O=C(NC(=O)c1c(F)cccc1F)Nc1ccc(-c2nn[nH]n2)cc1Cl` [Example 1, N-(2,6-difluorobenzoyl)-N′-(2-chloro-4-tetrazol-5-yl-phenyl)-urea]: the chromatographic logP in data set [1] (pH 2) came to 2.13.

As to `O=C(NC(=O)c1c(F)cccc1F)Nc1ccc(-c2nnn(C3CCCCO3)n2)cc1Cl` (centres unmarked) [Example 2, N-(2,6-difluorobenzoyl)-N′-[2-chloro-4-(2-tetrahydropyran-2-yl-tetrazol-5-yl)-phenyl]-urea], the chromatographic logP in data set [1] (pH 2) stood at 3.72. As for `CC(C)(C)n1nnc(-c2ccc(NC(=O)NC(=O)c3c(F)cccc3F)c(Cl)c2)n1` [Example 4], the destruction (in the data set with Heliothis virescens; in data set [2]; in data set [3]; in data set [4]; in data set [5]) was 100% throughout.

For the compound `Cn1nnc(-c2ccc(NC(=O)NC(=O)c3c(F)cccc3F)c(Cl)c2)n1` [Example 5], the “logP (pH2)” value in data set [1] (setting [6]) was 2.88. This compound gave a destruction in data set [5] of 100%. On to `O=C(NC(=O)c1c(F)cccc1F)Nc1ccc(Cl)cc1-c1nn[nH]n1` [Example 6], for which, in data set [1] (setting [6]), the “logP (pH2)” value came out at 2.16. `O=C(NC(=O)c1c(F)cccc1F)Nc1cc(Cl)c(-c2nn[nH]n2)cc1Cl` [Example 7]: the “logP (pH2)” value in data set [1] (setting [6]) is reported as 2.30.

As for `CC(C)(C)n1nnc(-c2ccc(NC(=O)NC(=O)c3c(F)cccc3Cl)c(Cl)c2)n1` [Example 10], the destruction in data set [2] and in data set [5] was 100% each time. As to `CC(C)(C)n1nnc(-c2cc(Cl)ccc2NC(=O)NC(=O)c2c(F)cccc2F)n1` [Example 11], in data set [1] (setting [6]), the “logP (pH2)” value amounted to 4.20. For `CCOCn1nnc(-c2ccc(NC(=O)NC(=O)c3c(F)cccc3F)c(Cl)c2)n1` [Example 14], the destruction in data set [5] came out at 100%. The compound `CCCn1nnc(-c2ccc(NC(=O)NC(=O)c3c(F)cccc3F)c(Cl)c2)n1` [Example 15] displayed a destruction in data set [5] of 100%.

Regarding `CC(C)(C)n1nnc(-c2cc(Cl)c(NC(=O)NC(=O)c3c(F)cccc3F)cc2Cl)n1` [Example 16], the destruction in data set [2] and in data set [5] was 100% in each case. For the compound `O=C(NC(=O)c1c(F)cccc1F)Nc1ccc(-c2nnn(C(F)F)n2)cc1Cl` [Example 18], the destruction in data set [2] and in data set [5] was 100% throughout.

Regarding `O=C(NC(=O)c1c(F)cccc1F)Nc1ccc(-c2nnn(-c3ccccc3)n2)cc1Cl` [Example 19], the “logP (pH2) or m.p. (° C.)” value in data set [1] (pH 2) is 4.63. Turning to `O=C(NC(=O)c1c(F)cccc1F)Nc1ccc(-c2nnnn2C(F)F)cc1Cl` [Example 20], the destruction in data set [2] and in data set [5] was 100% in each case. On to `CC(C)(C)n1nnc(-c2ccc(NC(=O)NC(=O)c3c(F)cccc3F)cc2Cl)n1` [Example 35], for which the “logP (pH2)” value in data set [1] (setting [6]) is 3.68. Regarding `CC(C)(C)n1nnc(-c2cc(Cl)ccc2N)n1` [Example a, 5-(2-amino-5-chlorophenyl)-2-tert-butyl-tetrazole], in data set [1] (pH 2), the chromatographic logP worked out at 3.58. Regarding `Nc1ccc(-c2nnn(Cc3ccc(Br)cc3)n2)cc1Cl` [Example b, 5-(3-chloro-4-aminophenyl)-2-(4-bromobenzyl)-tetrazole], the chromatographic logP in data set [1] (pH 2) stood at 3.52. `Cc1cc(-c2nn[nH]n2)cc(Cl)c1N` [III-5]: in data set [1] (setting [7]), the “logP (pH2)” value was determined as 1.20. As to `Cn1nnc(-c2ccc(N)c(Cl)c2)n1` [III-6], the “logP (pH2)” value in data set [1] (setting [7]) came to 1.70. Still for that read-out and setting: with `Nc1ccc(Cl)cc1-c1nn[nH]n1` [III-7] the figure was 1.50.

Take `Nc1cc(Cl)c(-c2nn[nH]n2)cc1Cl` [III-8]: the “logP (pH2)” value in data set [1] (setting [7]) is 1.16. `Nc1ccc(-c2nn[nH]n2)c(Cl)c1` [III-9]: in data set [1] (setting [7]), the “logP (pH2)” value worked out at 1.53. `COC(=O)Cn1nnc(-c2ccc(N)c(Cl)c2)n1` [III-10]: in data set [1] (setting [7]), the “logP (pH2)” value worked out at 1.92. For `CCOCn1nnc(-c2ccc(N)c(Cl)c2)n1` [III-11], the “logP (pH2)” value in data set [1] (setting [7]) is 2.34.

With `CCCn1nnc(-c2ccc(N)c(Cl)c2)n1` [III-12], in data set [1] (setting [7]), the “logP (pH2)” value is reported as 2.52. With `Nc1ccc(-c2nnn(C(F)F)n2)cc1Cl` [III-14], in data set [1] (setting [7]), the “logP (pH2)” value is recorded as 2.08. Regarding `Nc1ccc(-c2nnn(-c3ccccc3)n2)cc1Cl` [III-15], the “logP (pH2)” value in data set [1] (setting [7]) was determined as 3.28.

Regarding `Nc1ccc(-c2nnnn2C(F)F)cc1Cl` [III-16], the “logP (pH2)” value in data set [1] (setting [7]) is given as 1.92.

`CC(C)Cn1nnc(-c2ccc(N)c(Cl)c2)n1` [III-17]: the “logP (pH2)” value in data set [1] (setting [7]) amounted to 2.95. Same read-out and setting: the result for `Nc1ccc(-c2nnn(CCC(F)=C(F)F)n2)cc1Cl` [III-18] reads 2.68; that for `CC(C)(C)n1nnc(-c2cc(Cl)c(N)c(Cl)c2)n1` [III-19], 3.81; that for `CC(C)Cn1nnc(-c2cc(Cl)c(N)c(Cl)c2)n1` [III-20], 3.78. As to `CC(C)Cn1nnc(-c2cc(Cl)c(N)cc2Cl)n1` [III-21], the “logP (pH2)” value in data set [1] (setting [7]) came to 3.15. Consider `CCCn1nnc(-c2cc(Cl)c(N)cc2Cl)n1` [III-22], for which, in data set [1] (setting [7]), the “logP (pH2)” value stood at 2.75. For the compound `CC(C)(C)n1nnc(-c2ccc(N)cc2)n1` [III-23], the “logP (pH2)” value in data set [1] (setting [7]) is 1.69. For the compound `CC(=O)OCCn1nnc(-c2ccc(N)c(Cl)c2)n1` [III-24], the “logP (pH2)” value in data set [1] (setting [7]) is recorded as 1.92. Same read-out and setting: with `Nc1c(Cl)cc(-c2nn[nH]n2)cc1Cl` [III-25] the figure was 1.40; with `CC(C)(C)n1nnc(-c2ccc(N)c(Cl)c2)n1` [III-26], 2.94; with `Nc1cc(Cl)c(-c2nnn(C(F)F)n2)cc1Cl` [III-28], 2.69. `Nc1cc(Cl)c(-c2nnnn2C(F)F)cc1Cl` [III-29]: the “logP (pH2)” value in data set [1] (setting [7]) came out at 2.36. With `CC(C)(C)n1nnc(-c2ccc(N)cc2Cl)n1` [III-31], in data set [1] (setting [7]), the “logP (pH2)” value worked out at 2.42.

As to `CC(C)(C)n1nnc(-c2ccc(N)cc2F)n1` [III-32], the “logP (pH2)” value in data set [1] (setting [7]) was determined as 2.14. Consider `Nc1ccc(-c2nnn(C(F)F)n2)cc1` [III-46], for which the “logP (pH2)” value in data set [1] (setting [7]) is recorded as 1.49.

In the case of `Nc1ccc(-c2nnnn2C(F)F)cc1` [III-47], the “logP (pH2)” value in data set [1] (setting [7]) stood at 1.24. Turning to `Nc1ccc(-c2nnn(C(F)F)n2)c(Cl)c1` [III-48], the “logP (pH2)” value in data set [1] (setting [7]) stood at 2.09.

With `Nc1ccc(-c2nnnn2C(F)F)c(Cl)c1` [III-49], the “logP (pH2)” value in data set [1] (setting [7]) was 1.81. On the same count and under the same terms, with `Nc1ccc(-c2nnn(C(F)F)n2)c(F)c1` [III-50] the figure was 1.84.

Turning to “N-(2,6-difluorobenzoyl)-N′-[2-chloro-4-(1-methyl-tetrazol-5-yl]-urea [Example 3]”, the “log P(pH2)” value in data set [1] (pH 2) is 2.31.
